# According to ChEMBL document CHEMBL1143569, “Predicting human serum albumin affinity of interleukin-8 (CXCL8) inhibitors by 3D-QSPR approach” (J Med Chem, 2005):
# Target: albumin (Homo sapiens, UniProt P02768)
# Test: Percentage plasma protein binding towards human serum albumin
# Format: cell-free
# Conditions: read-out: PB (converted)
# albumin, sequence (P02768 whole entry): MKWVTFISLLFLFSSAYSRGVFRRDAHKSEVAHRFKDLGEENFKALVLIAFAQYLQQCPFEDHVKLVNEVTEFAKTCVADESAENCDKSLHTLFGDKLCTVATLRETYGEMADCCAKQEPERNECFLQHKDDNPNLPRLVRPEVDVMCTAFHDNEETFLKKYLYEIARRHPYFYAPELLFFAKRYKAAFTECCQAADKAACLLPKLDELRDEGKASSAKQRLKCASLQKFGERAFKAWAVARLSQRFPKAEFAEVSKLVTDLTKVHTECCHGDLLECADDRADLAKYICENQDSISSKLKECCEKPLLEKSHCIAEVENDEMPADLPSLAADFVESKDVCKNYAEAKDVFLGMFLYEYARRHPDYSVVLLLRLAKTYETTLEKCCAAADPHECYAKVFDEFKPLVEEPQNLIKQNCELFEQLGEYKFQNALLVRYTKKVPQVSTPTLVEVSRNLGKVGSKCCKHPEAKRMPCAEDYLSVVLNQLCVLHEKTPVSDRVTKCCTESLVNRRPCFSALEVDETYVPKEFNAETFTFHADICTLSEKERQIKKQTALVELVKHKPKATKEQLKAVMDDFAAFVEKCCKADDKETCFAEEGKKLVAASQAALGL
row,Structure (SMILES),fraction unbound
1,CCCNC(=O)NS(=O)(=O)c1ccc(Cl)cc1 [CHLORPROPAMIDE],0.04
2,C[C@@H](C(=O)NCCN1CCCC1)c1ccc(OS(=O)(=O)C(F)(F)F)cc1,0.3
3,Cc1ccc(S(=O)(=O)NC(=O)NN2CCCCCC2)cc1 [TOLAZAMIDE],0.03
4,NS(=O)(=O)c1cc2c(cc1Cl)NCNS2(=O)=O [HYDROCHLOROTHIAZIDE],0.42
5,CC(C)Cc1ccc([C@@H](C)C(=O)N[C@H](C)C(=O)O)cc1,0.04
6,CC(C)Cc1ccc([C@@H](C)C(=O)NCCOCCO)cc1,0.169
7,Cc1cc(CC(=O)O)n(C)c1C(=O)c1ccc(Cl)cc1 [ZOMEPIRAC],0.015
8,Cc1ccc(C(=O)c2ccc(CC(=O)O)n2C)cc1 [TOLMETIN],0.004
9,CC(C)Cc1ccc([C@@H](C)C(=O)NCCCN2CCCCC2)cc1,0.149
10,CC(C)Cc1ccc([C@@H](C)C(=O)NCCCN(C)C)cc1,0.249
11,COc1ccc2c(c1)CN(c1ccc(C(C)C(=O)O)cc1)C2=O (stereo unspecified),0.02
12,C[C@@H](C(N)=O)c1ccc(OS(=O)(=O)C(F)(F)F)cc1,0.08
13,C[C@@H](C(=O)NCCCN1CCCC1)c1ccc(OS(=O)(=O)C(F)(F)F)cc1,0.38
14,CS(=O)(=O)Nc1ccc([N+](=O)[O-])cc1Oc1ccccc1 [NIMESULIDE],0.1
15,CC(C)Cc1ccc([C@@H](C)C(=O)NS(C)(=O)=O)cc1 [REPARIXIN],0.001
16,CC1=C(CC(=O)O)c2cc(F)ccc2/C1=C\c1ccc([S+](C)[O-])cc1 (stereo unspecified),0.06
17,CC(C)NCC(O)c1ccc(NS(C)(=O)=O)cc1 (stereo unspecified) [SOTALOL],0.825
18,CC(Cc1ccc([C@@H](C)C(=O)NS(C)(=O)=O)cc1)C(=O)O (stereo partly specified),0.298
19,CC(C(=O)O)c1ccc(-c2ccccc2)c(F)c1 (stereo unspecified) [FLURBIPROFEN],0.005
20,O=C(c1ccccc1)c1ccc2n1CCC2C(=O)O (stereo unspecified) [KETOROLAC],0.008
21,C[C@@H](C(=O)NS(C)(=O)=O)c1ccc(OS(=O)(=O)C(F)(F)F)cc1 [LADARIXIN],0.002
